Assay results: patent US4786755A, “Diphenic acid monoamides” (Warner-Lambert Company, priority 1986, dated 1988)

The molecules below were run against T1, leukotriene receptor (Cavia porcellus, UniProt Q2NNR5) (assay: Binding of ^3 H-Leukotriene D4 to Guinea Pig Lung Membranes (RBL)). Details: ^3 H-LTD4, guinea pig lung membranes; read-out: IC50 RBL1.
T1 construct: 20 mg original tissue wet weight of guinea pig lung membranes; tissue Kuiper Rabbit Farm, Gary, IN (animals); host or cells: guinea pig lung, crude membranes
T1 sequence (Q2NNR5 1-340): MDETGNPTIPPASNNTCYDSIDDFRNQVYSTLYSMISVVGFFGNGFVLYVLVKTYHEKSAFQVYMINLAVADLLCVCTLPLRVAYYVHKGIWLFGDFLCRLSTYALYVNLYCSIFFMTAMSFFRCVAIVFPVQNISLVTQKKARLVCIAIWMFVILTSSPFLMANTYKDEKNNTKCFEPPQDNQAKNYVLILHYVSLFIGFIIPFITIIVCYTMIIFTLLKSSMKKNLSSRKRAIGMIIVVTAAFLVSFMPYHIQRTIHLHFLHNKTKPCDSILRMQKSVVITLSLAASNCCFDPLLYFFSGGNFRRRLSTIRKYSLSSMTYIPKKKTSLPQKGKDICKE
Protocol: Additionally, the activity, of the compounds having the Formula I of the present invention is determined by the well known leukotriene receptor binding assay that is described by R. F. Bruns, W. J. Thomsen and T. A. Pugsley in Life Sciences, 33, 645 (1983) or the Herxheimer in vivo antiallergy test described in H. Herxheimer, J. Physiol. (London), Vol. 177, p. 251 (1952).
Binding of ^3 H-Leukotriene D4 to Guinea Pig Lung Membranes (RBL)
[14,15-^3 H]leukotriene D4 (^3 H-LTD4) (25 Ci/mmol and 40 Ci/mmol) is purchased from New England Nuclear. Unlabeled LTC4 is a gift of Ono Pharmaceuticals (Japan). LTC4, LTD4, and LTE4 are purchased as methyl esters from Paesel GmbH (Frankfurt, W. Germany). Concentrations of the Paesel leukotrienes are calculated from their absorbance at 280 nm. Leukotriene esters are saponified overnight under N2 in 3.3% potassium carbonate at room temperature. Tritiated leukotrienes are stored as received from New England Nuclear at -20° C. Ono LTC4 (5 μg/ml is stored at -60° C. in phosphate buffer pH 6.8. Saponified Paesel leukotrienes are stored at -60° C. in 3.3% potassium carbonate (pH 9.0-9.5). Aliquots of leukotrienes are taken from stock solutions immediately after thawing, after which the stock solutions are immediately refrozen. 2-Amino-2-(hydroxymethyl)-1,3-propanediol (Tris) is Sigma pH 7.7 pre-set crystals, and dimethylsulfoxide is Aldrich Gold Label.
Preparation of crude lung membranes
Two pairs of lungs (1.3 g) from freshly sacrificed 300 g male guinea pigs (older animals gave substantially lower binding) from Kuiper Rabbit Farm, Gary, IN are disrupted with a Polytron PT 10 (setting 4) for 30 seconds in 20 ml ice-cold 50 mM Tris adjusted with HCl to pH 7.7 at 25° C. (Tris buffer), filtered through a single layer of gauze to remove connective tissue, and centrifuged at 50,000 xg for ten min. The pellet is resuspended by homogenization with a Polytron in 20 ml Tris buffer, centrifuged at 50,000 xg for ten min., resuspended, incubated at 37° C. for 30 minutes, and centrifuged again. The final pellet is resuspended in Tris buffer and either used fresh or stored at -70° C.
All incubations are in triplicate for 60 minutes at 25° C. in 12×75 mm polystyrene tubes containing 1 ml Tris buffer with 20 mg original tissue wet weight of guinea pig lung membranes, 0.2 nM ^3 H-LTD4 (6,000-11,000 cpm), 10 mM MgCl2, and 1% dimethylsulfoxide. Leukotrienes are diluted in Tris buffer. All other test compounds are dissolved at 10 mM in dimethylsulfoxide on the same day as the experiment, and diluted in dimethylsulfoxide to 100× the final incubation concentration. Control incubations receive an equal volume (10 μl) of dimethylsulfoxide; the resulting concentration of dimethylsulfoxide had no effect on binding. ^3 H-LTD4 is diluted to 2 nM in Tris buffer. The membrane suspension (20 mg/0.89 ml) contains sufficient MgCl2 to give 10 mM final concentration in the incubation. […] All additions are performed at 0° C. Immediately after the last addition, the incubation is initiated by agitating the rack of tubes on a vortex mixer and warming to 25° C. in a water bath. Tubes are vortexed at least once more during the incubation to ensure that the membranes remained suspended. Incubations are terminated after 60 minutes by filtering under reduced pressure through 25 mm Whatman GF/B filters followed by rapid washing three times with 4 ml of ice-cold Tris buffer. Filters are added to scintillation vials with 8 ml Formula 947 (New England Nuclear), left overnight, shaken, and the radioactivity counted in a scintillation counter (efficiency 40%). Nonspecific binding, defined as binding of ^3 H-LTD4 in the presence of 100 nM LTC4, is 300-500 cpm for all lots of ^3 H-LTD4. Binding to the filters in the absence of tissue is about 100 cpm, and is not affected by unlabeled LTC4. Specific binding, defined as total binding minus nonspecific binding, varied considerably from lot to lot of ^3 H-LTD4. […]
With `O=C(O)c1ccccc1-c1ccccc1C(=O)Nc1cccc(CCCc2ccc(Cl)c(Cl)c2)c1` [Example 6, [1,1'-Biphenyl]-2-carboxylic acid, 2'-[[[3-[3-(3,4-dichlorophenyl)propyl]phenyl]amino]carbonyl]] the IC50 was 1 µM.
Work on `O=C(O)c1ccccc1-c1ccccc1C(=O)Nc1ccc(CCc2cc(C(F)(F)F)cc(C(F)(F)F)c2)cc1` [Example 13, [1,1'-Biphenyl]-2-carboxylic acid, 2'-[[[4-[2-[3,5-bis(trifluoromethyl)phenyl]ethyl]phenyl]amino]carbonyl]-] yielded an IC50 of 5.4 µM.
For `CCCCCCCCCCc1ccc(NC(=O)c2ccccc2-c2ccccc2C(=O)O)cc1` [Example 20], the IC50 was 11.2 µM.
For `O=C(O)c1ccccc1-c1ccccc1C(=O)Nc1ccc(OCCCCc2ccccc2)cc1` [Example 44, [1,1'-Biphenyl]-2-carboxylic acid, 2'-[[[4-(4-phenylbutyloxy)phenyl]amino]carbonyl]-], the IC50 was 1.2 µM.
With `O=C(C=Cc1ccc(Cl)c(Cl)c1)c1ccc(NC(=O)c2ccccc2-c2ccccc2C(=O)O)cc1` [Example 46, [1,1'-Biphenyl]-2-carboxylic acid, 2'-[[[4-[1-oxo-3-(3,4-dichlorophenyl)-2-propenyl]phenyl]amino]-carbonyl]-] the IC50 was 5.7 µM.
With `O=C(C=Cc1ccc(Br)cc1)c1ccc(NC(=O)c2ccccc2-c2ccccc2C(=O)O)cc1` [Example 47, [1,1'-Biphenyl]-2-carboxylic acid, 2'-[[[4-[1-oxo-3-(4-bromophenyl)-2-propenyl]phenyl]amino]carbonyl]-] the IC50 was 27.1 µM.
`CN(C)c1ccc(CCC(=O)c2ccc(NC(=O)c3ccccc3-c3ccccc3C(=O)O)cc2)cc1` [Example 48, [1,1'-Biphenyl]-2-carboxylic acid, 2'-[[[4-[1-oxo-3-(4-dimethylaminophenyl)propyl]phenyl]amino]carbonyl]-] was tested, and the IC50 was 53.1 µM.
In the case of `O=C(CCc1ccc(Cl)cc1)c1ccc(NC(=O)c2ccccc2-c2ccccc2C(=O)O)cc1` [Example 49, [1,1'-Biphenyl]-2-carboxylic acid, 2'-[[[4-[1-oxo-3-(4-chlorophenyl)propyl]phenyl]amino]carbonyl]-], the IC50 is reported as 7.5 µM.
With `O=C(O)c1ccccc1-c1ccccc1C(=O)Nc1cccc(CCCCc2ccc(Cl)c(Cl)c2)c1` [Example 50, [1,1'-Biphenyl]-2-carboxylic acid, 2'-[[[3-[4-(3,4-dichlorophenyl)butyl]phenyl]amino]carbonyl]-] the IC50 was 0.7 µM.
`O=C(CCc1ccc(Br)cc1)c1ccc(NC(=O)c2ccccc2-c2ccccc2C(=O)O)cc1` [Example 51, [1,1'-Biphenyl]-2-carboxylic acid, 2'-[[[4-[1-oxo-3-(4-bromophenyl)propyl]phenyl]amino]-carbonyl]-] was tested, and the IC50 was 7.2 µM.
With `O=C(O)c1ccccc1-c1ccccc1C(=O)Nc1ccc(CCc2ccc(Oc3ccccc3)cc2)cc1` [Example 52] the IC50 was 13.2 µM.
Work on `O=C(O)c1ccccc1-c1ccccc1C(=O)Nc1cccc(CCc2ccc(Oc3ccccc3)cc2)c1` [Example 53] yielded an IC50 of 2.4 µM.
With `O=C(CCc1ccc(NC(=O)c2ccccc2-c2ccccc2C(=O)O)cc1)c1ccc(Oc2ccccc2)cc1` [Example 54, [1,1'-Biphenyl]-2-carboxylic acid, 2'-[[[4-[3-oxo-3-(4-phenoxyphenyl)propyl]phenyl]amino]carbonyl]-] the IC50 was 17.1 µM.
In the case of `O=C(O)c1ccccc1-c1ccccc1C(=O)Nc1ccc(CCCc2ccc(Oc3ccccc3)cc2)cc1` [Example 55, [1,1'-Biphenyl]-2-carboxylic acid, 2'-[[[4-[3-(4-phenoxyphenyl)propyl]phenyl]amino]carbonyl]-], the IC50 is reported as 13.1 µM.
For `O=C(CCCCc1ccc(Cl)c(Cl)c1)c1ccc(NC(=O)c2ccccc2-c2ccccc2C(=O)O)cc1` [Example 56, [1,1'-Biphenyl]-2-carboxylic acid, 2'-[[[4-[5-(3,4-dichlorophenyl)-1-oxopentyl]phenyl]amino]-carbonyl]-], the IC50 was 3.8 µM.
`CC(CC(=O)CCc1ccc(NC(=O)c2ccccc2-c2ccccc2C(=O)O)cc1)c1ccccc1` (centres unmarked) [Example 57, [1,1'-Biphenyl]-2-carboxylic acid, 2'-[[[4-[5-phenyl-3-oxohexyl]phenyl]amino]carbonyl]-] was tested, and the IC50 was 44.9 µM.
`O=C(O)c1ccccc1-c1ccccc1C(=O)Nc1ccc(CCCCCc2ccc(Cl)c(Cl)c2)cc1` [Example 58, [1,1'-Biphenyl]-2-carboxylic acid, 2'-[[[4-[5-(3,4-dichlorophenyl]pentyl]phenyl]amino]carbonyl]-] showed an IC50 of 7.3 µM.
